Test results from patent EP0423240B1, “MODULATION OF VIRUS-HOST CELL INTERACTIONS USING CYCLIC OLIGOSACCHARIDES” (THE TRUSTEES OF THE UNIVERSITY OF PENNSYLVANIA, priority 1988, dated 1990).
Converted amounts (≈) assume the structure as drawn.

Tests used:
HIV-1 [1] = assay: HIV-1 induced syncytia assay, IIIb infected H9 cells cocultured with Supt-1 target cells; type: cell-based; settings: for number of syncytia formed: HIV-1, number and size of syncytia
Method: (§1) For the assay of HIV-1 fusion, Supt T1 cells were used as target cells. They fuse rapidly when cocultured with HIV-1 (H9/IIIb) producing cell lines. For the assay of HIV-2 mediated cell fusion, H9 cells were used as target cells. They fuse rapidly when cocultured with HIV-2 (CEMROD-2) producing cell lines. HIV infected cells were plated in 96 well plates (10⁴ cells/well in RPMI 1640 + 10% FCS) and incubated with or without dilution of compounds for 30 minutes at 37°C. Target cells are then added 5 x 10⁵/well and the number of syncytia are qualitatively determined after the incubation periods described in the text.
In a series of additional experiments, analysis of HIV-1 induced syncytia was performed by coculturing H9 cells infected with the IIIb isolate with uninfected Supt-1 (a human CD4+ T cell line) cells as targets. […]

HIV-2 = HIV-2 induced syncytia assay, ROD-2 infected cells cocultured with H9 target cells; type: cell-based; settings: HIV-2, number and size of syncytia
Method: as §1, with “text. […]” for “text.”

Water solubility at 0°C = type: physicochemical; settings: 0°C, H₂O
Method: The cyclic oligosaccharide derivatives useful in the present invention are highly hydrophilic and therefore very water soluble. A highly hydrophilic character probably is important to allow interaction with cellular surfaces. The hydrophilic activity is likely roughly indicated by the affinity to water, as measured by water solubility. It is important to measure the same at 0°C since at higher temperatures the most suitable derivative have solubilities so high that meaningful measurements are difficult.

[2] = test system: HTLV-IIIb cell free virus; assay: Reverse transcriptase assay of HIV infectivity, cell free virus on target cells, 10 day incubation; type: cell-based, HIV-1; settings: 1/2 dilutions from 2.5 mM, result in words
Method: Figure 2 illustrates the effects of cyclodextrin and cyclodextrin derivatives on HIV infectivity as determined by reverse transcriptase activity. Samples assayed are (A) untreated control cells, (B) β-cyclodextrin unsubstituted ring, (C) partially sulfated β-cyclodextrin ring, (D) propylated β-cyclodextrin ring, (E) sulfated β-cyclodextrin ring, and (F) methylated β-cyclodextrin ring. Numbers indicate 1/2 dilutions of test compounds with 1 = 2.5 mM concentration of compound.
Virus infected cells were pelleted by centrifugation and 50 µl of culture suprenatant was collected from each well for assay. Culture supernatant (25 µl) was plated in 96 well round bottomed plates and 50 µl of transcriptase cocktail was added to each well. Cocktail is 50 mM Tris-HC1, pH 8.0, 20 mM DTT, 0.6 mM MnC1₂, 60 mM NaC1, 0.05% NP-40, 5 µg/ml dt (oligodeoxythymidilic acid), 10 µg/ml poly A (polyriboadenylic acid), 10 µM dTTP, 1 Ci/mm ³²P dTTP. Plates were then incubated for 60 minutes at 37°C. After incubation samples were spotted onto Whatman DEAE-81 paper, washed and analyzed by counting or direct autoradiography.
The ability of cyclodextrins to inhibit HIV infection was assessed in vitro utilizing reverse transcriptase assays as described Section 6.1.2, supra. HTLV-IIIb cell free virus stocks were inoculated onto target cells in the presence or absence of the synthetic compounds.

HIV-1 [3] = assay: Viral RNA analysis by dot blot; type: cell-based; settings: target cells infected in the presence of compound, 1 mM, 72 hours post-infection
Method: Virus particles were incubated with target cells in the presence or absence of […] of β-CD-14S. At 72 hours post infection, the cells were washed and dot blot assays were performed to determine the presence or absence of viral RNA production. In (A), target cells were infected in the presence of sulfated β-cyclodextrin (lane A), in the absence of cyclodextrins (lane B), or in the presence of unsubstituted β-cyclodextrin (lane C). 1/2 dilutions of cells are from left to right starting with 10⁶ cell/well utilized. In (B), virally infected cells (+) or uninfected cells (-) were assayed for their ability to produce viral RNA by dot blot analysis. CD = infected cells incubated with 1 mM of β-CD-14S. 1/2 dilutions of cells are from top to bottom starting with 10⁶ cell/well.
Virus treated cells were grown in tissue culture and harvested for assay at 72 hrs. post-infection. The cell concentrations were then adjusted to 1 x 10⁶ cells/m1 with phosphate buffered saline and spotted directly onto prewetted gene screen utilizing a dot blot apparatus. The filter was then fixed in 3% NaC1, 10 mM NaH₂PO₄, (pH 7.2) containing 1% gluteraldehyde at 4°C for 1 hr. The fixed blot was then rinsed three times with proteolytic buffer (50mM EDTA, 0.1 M Tris-HC1 (pH 8.0), 20 µg/ml proteinase K) for 30 minutes at 37°C. The filter was air dried until being probed. A Sall-Xho1 probe derived from the pIIIenv1 plasmid (a generous gift of Dr. J. Sodrofsky) and encoding the envelope region of the HXB2, HIV-1 virus was labeled by the random primer method using standard technology and hybridized to the filter as previously described (Weiner et al., 1986, Cell Immunol. 100:197).
To determine if the cyclodextrins were interfering with steps relevant to viral replication, the ability of these compounds to inhibit viral nucleic acid synthesis was determined. Virus particles were incubated with target cells in the presence or absence of 1 mM of β-CD-14S. At 72 hours post-infection, the cells were washed and dot blot assays were performed to determine the presence or absence of viral RNA production. […]

OC[C@H]1O[C@@H]2O[C@H]3[C@H](O)[C@@H](O)[C@@H](O[C@H]4[C@H](O)[C@@H](O)[C@@H](O[C@H]5[C@H](O)[C@@H](O)[C@@H](O[C@H]6[C@H](O)[C@@H](O)[C@@H](O[C@H]7[C@H](O)[C@@H](O)[C@@H](O[C@H]8[C@H](O)[C@@H](O)[C@@H](O[C@H]1[C@H](O)[C@H]2O)O[C@@H]8CO)O[C@@H]7CO)O[C@@H]6CO)O[C@@H]5CO)O[C@@H]4CO)O[C@@H]3CO [Beta-CD, β-cyclodextrin, reference compound]
number of syncytia formed (HIV-1 [1]; 1.3 mM): 4 L
number of syncytia formed (HIV-1 [1]; 2.5 mM): 4 L
number of syncytia formed (HIV-1 [1]; .01 mM): 4 L
number of syncytia formed (HIV-1 [1]; .02 mM): 4 L
number of syncytia formed (HIV-1 [1]; .04 mM): 4 L
number of syncytia formed (HIV-1 [1]; .08 mM): 4 L
number of syncytia formed (HIV-1 [1]; .16 mM): 4 L
number of syncytia formed (HIV-1 [1]; .32 mM): 4 L
number of syncytia formed (HIV-1 [1]; .63 mM): 4 L
inhibiting syncytia formation of HIV-1 (HIV-1 [1]; result in words): as ineffective as media alone
number of syncytia formed (HIV-2; 1.3 mM): 4 L
number of syncytia formed (HIV-2; 2.5 mM): 4 L
number of syncytia formed (HIV-2; .01 mM): 4 L
number of syncytia formed (HIV-2; .02 mM): 4 L
number of syncytia formed (HIV-2; .04 mM): 4 L
number of syncytia formed (HIV-2; .08 mM): 4 L
number of syncytia formed (HIV-2; .16 mM): 4 L
number of syncytia formed (HIV-2; .32 mM): 4 L
number of syncytia formed (HIV-2; .63 mM): 4 L
solubility (Water solubility at 0°C): 7000 µg/mL (≈ 6.17 mM)
inhibition of viral infectivity (reverse transcriptase activity) [2]: no inhibition of viral infectivity
HIV-1 specific RNA (HIV-1 [3]): substantial viral RNA was detected
